Reference: ChEMBL document CHEMBL4414672, “Synthesis of certain benzothieno[3,2-d]pyrimidine derivatives as a selective SIRT2 inhibitors” (Eur J Med Chem, 2020)
Values after ≈ are worked out from the molar mass of the structure shown.

Assays:
HT-29 = experiment: Growth inhibition of human HT-29 cells at 10^-5 M incubated for 48 hrs by sulforhodamine B assay; type: functional; details: HT-29, 48 h, read-out: GI
OVCAR-3 = experiment: Growth inhibition of human OVCAR3 cells at 10^-5 M incubated for 48 hrs by sulforhodamine B assay; type: functional; details: OVCAR-3, 48 h, read-out: GI
SK-MEL-2 = experiment: Growth inhibition of human SK-MEL-2 cells at 10^-5 M incubated for 48 hrs by sulforhodamine B assay; type: functional; details: SK-MEL-2, 48 h, read-out: GI
CCRF-CEM = experiment: Growth inhibition of human CCRF-CEM cells at 10^-5 M incubated for 48 hrs by sulforhodamine B assay; type: functional; details: read-out: GI
A498 = experiment: Growth inhibition of human A498 cells at 10^-5 M incubated for 48 hrs by sulforhodamine B assay; type: functional; details: A498, 48 h, read-out: GI
MCF7 [1] = experiment: Cytotoxicity against human MCF7 cells assessed as reduction in cell viability after 24 hrs by MTT assay; type: functional, cell-based; details: MCF7, 24 h
UO-31 [2] = experiment: Cytotoxicity against human UO31 cells assessed as reduction in cell viability after 24 hrs by MTT assay; type: functional, cell-based; details: UO-31, 24 h
Malme-3M = experiment: Growth inhibition of human MALME-3M cells at 10^-5 M incubated for 48 hrs by sulforhodamine B assay; type: functional; details: read-out: GI
OVCAR-4 = experiment: Growth inhibition of human OVCAR4 cells at 10^-5 M incubated for 48 hrs by sulforhodamine B assay; type: functional; details: OVCAR-4, 48 h, read-out: GI
SN12C = experiment: Growth inhibition of human SN12C cells at 10^-5 M incubated for 48 hrs by sulforhodamine B assay; type: functional; details: read-out: GI
MCF7 [3] = experiment: Growth inhibition of human MCF7 cells at 10^-5 M incubated for 48 hrs by sulforhodamine B assay; type: functional; details: MCF7, 48 h, read-out: GI
PC-3 = experiment: Growth inhibition of human PC3 cells at 10^-5 M incubated for 48 hrs by sulforhodamine B assay; type: functional; details: PC-3, 48 h, read-out: GI
NCI-H322M = experiment: Growth inhibition of human NCI-H322M cells at 10^-5 M incubated for 48 hrs by sulforhodamine B assay; type: functional; details: read-out: GI
SF-268 = experiment: Growth inhibition of human SF268 cells at 10^-5 M incubated for 48 hrs by sulforhodamine B assay; type: functional; details: SF-268, 48 h, read-out: GI
[4] = target: NAD-dependent protein deacetylase sirtuin-1 (Homo sapiens, UniProt Q96EB6); experiment: Inhibition of SIRT1 (unknown origin) using fluorogenic substrate assessed as deacetylase activity incubated for 45 mins by fluorescence assay
Sequence of NAD-dependent protein deacetylase sirtuin-1 (Q96EB6 whole entry): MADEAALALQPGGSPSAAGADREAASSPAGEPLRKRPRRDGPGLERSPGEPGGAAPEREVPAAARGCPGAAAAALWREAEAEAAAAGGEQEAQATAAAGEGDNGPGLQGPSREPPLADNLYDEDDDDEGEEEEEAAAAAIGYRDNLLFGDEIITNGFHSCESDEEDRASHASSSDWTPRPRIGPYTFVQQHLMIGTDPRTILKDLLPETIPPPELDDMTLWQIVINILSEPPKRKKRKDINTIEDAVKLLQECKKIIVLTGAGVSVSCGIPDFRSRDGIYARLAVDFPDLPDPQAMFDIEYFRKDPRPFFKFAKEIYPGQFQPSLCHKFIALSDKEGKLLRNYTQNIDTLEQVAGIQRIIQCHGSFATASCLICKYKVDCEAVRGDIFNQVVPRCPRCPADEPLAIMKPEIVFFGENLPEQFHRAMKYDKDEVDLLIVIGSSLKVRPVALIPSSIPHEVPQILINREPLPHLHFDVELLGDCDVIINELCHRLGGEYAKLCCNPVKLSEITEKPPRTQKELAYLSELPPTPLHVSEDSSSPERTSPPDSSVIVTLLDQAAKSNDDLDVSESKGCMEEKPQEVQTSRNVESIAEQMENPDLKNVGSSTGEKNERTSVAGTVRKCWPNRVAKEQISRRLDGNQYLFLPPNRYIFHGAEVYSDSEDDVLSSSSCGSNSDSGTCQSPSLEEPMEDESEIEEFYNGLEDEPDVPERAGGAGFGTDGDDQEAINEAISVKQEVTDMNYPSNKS

UO-31 [5] = experiment: Growth inhibition of human UO31 cells at 10^-5 M incubated for 48 hrs by sulforhodamine B assay; type: functional; details: UO-31, 48 h, read-out: GI
BT-549 = experiment: Growth inhibition of human BT549 cells at 10^-5 M incubated for 48 hrs by sulforhodamine B assay; type: functional; details: BT-549, 48 h, read-out: GI
[6] = target: NAD-dependent protein deacetylase sirtuin-3, mitochondrial (Homo sapiens, UniProt Q9NTG7); experiment: Inhibition of SIRT3 (unknown origin) using fluorogenic substrate assessed as deacetylase activity incubated for 45 mins by fluorescence assay
Sequence of NAD-dependent protein deacetylase sirtuin-3, mitochondrial (Q9NTG7 whole entry): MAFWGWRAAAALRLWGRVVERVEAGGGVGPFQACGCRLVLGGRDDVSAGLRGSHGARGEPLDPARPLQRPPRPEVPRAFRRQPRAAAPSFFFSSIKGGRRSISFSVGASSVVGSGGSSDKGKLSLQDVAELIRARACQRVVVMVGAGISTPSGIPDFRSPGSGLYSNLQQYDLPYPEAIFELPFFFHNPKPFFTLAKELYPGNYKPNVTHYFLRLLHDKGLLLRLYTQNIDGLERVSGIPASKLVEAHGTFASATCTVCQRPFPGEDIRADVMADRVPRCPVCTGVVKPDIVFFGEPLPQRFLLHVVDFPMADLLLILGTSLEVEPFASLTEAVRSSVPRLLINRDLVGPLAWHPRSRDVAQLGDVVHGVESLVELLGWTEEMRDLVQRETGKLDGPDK

[7] = target: NAD-dependent protein deacetylase sirtuin-2 (Homo sapiens) (UniProt Q8IXJ6); experiment: (§1) Inhibition of SIRT2 (unknown origin) assessed as increase in alpha-tubulin acetylation after 2 hrs by alpha-tubulin acetyl-K40 assay
[8] = target: T1, NAD-dependent protein deacetylase sirtuin-2 (Homo sapiens, UniProt Q8IXJ6); experiment: as §1
T1 sequence (Q8IXJ6 whole entry): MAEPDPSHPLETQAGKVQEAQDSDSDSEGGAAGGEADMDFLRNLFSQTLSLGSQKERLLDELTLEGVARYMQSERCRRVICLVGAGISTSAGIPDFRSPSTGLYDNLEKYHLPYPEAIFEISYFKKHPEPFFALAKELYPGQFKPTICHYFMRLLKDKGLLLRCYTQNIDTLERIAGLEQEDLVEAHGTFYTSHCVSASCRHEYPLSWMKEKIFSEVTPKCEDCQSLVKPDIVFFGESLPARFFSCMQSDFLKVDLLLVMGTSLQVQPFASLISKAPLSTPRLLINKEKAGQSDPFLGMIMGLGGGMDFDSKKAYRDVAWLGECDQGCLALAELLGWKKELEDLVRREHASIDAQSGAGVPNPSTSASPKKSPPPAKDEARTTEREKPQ

ACHN = experiment: Growth inhibition of human ACHN cells at 10^-5 M incubated for 48 hrs by sulforhodamine B assay; type: functional; details: read-out: GI
K562 = experiment: Growth inhibition of human K562 cells at 10^-5 M incubated for 48 hrs by sulforhodamine B assay; type: functional; details: K562, 48 h, read-out: GI
SNB-19 = experiment: Growth inhibition of human SNB19 cells at 10^-5 M incubated for 48 hrs by sulforhodamine B assay; type: functional; details: SNB-19, 48 h, read-out: GI
NCI-H522 = experiment: Growth inhibition of human NCI-H522 cells at 10^-5 M incubated for 48 hrs by sulforhodamine B assay; type: functional; details: NCI-H522, 48 h, read-out: GI
NCI-H23 = experiment: Growth inhibition of human NCI-H23 cells at 10^-5 M incubated for 48 hrs by sulforhodamine B assay; type: functional; details: NCI-H23, 48 h, read-out: GI
[9] = target: T1, NAD-dependent protein deacetylase sirtuin-2; experiment: Inhibition of SIRT2 (unknown origin) using fluorogenic substrate assessed as deacetylase activity incubated for 45 mins by fluorescence assay
MDA-MB-468 = experiment: Growth inhibition of human MDA-MB-468 cells at 10^-5 M incubated for 48 hrs by sulforhodamine B assay; type: functional; details: MDA-MB-468, 48 h, read-out: GI
NCI/ADR-RES = experiment: Growth inhibition of human NCI/ADR-RES cells at 10^-5 M incubated for 48 hrs by sulforhodamine B assay; type: functional; details: read-out: GI

| SMILES | inhibition of growth at 10 µM (HT-29) [%] | inhibition of growth at 10 µM (OVCAR-3) [%] | inhibition of growth at 10 µM (SK-MEL-2) [%] | inhibition of growth at 10 µM (CCRF-CEM) [%] | inhibition of growth at 10 µM (A498) [%] | IC50 (MCF7 [1]) [µg/mL] | IC50 (UO-31 [2]) [µg/mL] | inhibition of growth at 10 µM (Malme-3M) [%] | inhibition of growth at 10 µM (OVCAR-4) [%] | inhibition of growth at 10 µM (SN12C) [%] | inhibition of growth at 10 µM (MCF7 [3]) [%] | inhibition of growth at 10 µM (PC-3) [%] | inhibition of growth at 10 µM (NCI-H322M) [%] | inhibition of growth at 10 µM (SF-268) [%] | inhibition of growth at 10 µM (UO-31 [5]) [%] | inhibition of growth at 10 µM (BT-549) [%] | inhibition of growth at 10 µM (ACHN) [%] | inhibition of growth at 10 µM (K562) [%] | inhibition of growth at 10 µM (SNB-19) [%] | inhibition of growth at 10 µM (NCI-H522) [%] | further results |
| --- | --- | --- | --- | --- | --- | --- | --- | --- | --- | --- | --- | --- | --- | --- | --- | --- | --- | --- | --- | --- | --- |
| O=C1CSC2=Nc3c(sc4ccc(Cl)cc34)C(c3ccc4ccccc4c3)N12 (configuration not stated) | -0.5 | -0.24 | -6.76 | -4.04 | 20 | 2.34 (≈ 5.56 µM) | 12.4 (≈ 29.5 µM) | 4.51 | 3.47 | 9.96 | 27.3 | 7.88 | 6.48 | 10.3 | 37.4 | -8.05 | 7.81 | 7.65 | -1.93 | 1.87 | IC50 [4]: 4.3 µM; IC50 [6]: 48.7 µM; inhibition [7]: Dose-dependent effect; IC50 [8]: 76.1 µM; inhibition of growth at 10 µM (NCI-H23): 14.1%; IC50 [9]: 4.99 µM; inhibition of growth at 10 µM (MDA-MB-468): 2.47%; inhibition of growth at 10 µM (NCI/ADR-RES): -1.46% |
| NC(=O)CSC1=Nc2c(sc3ccc(Cl)cc23)C(c2cccc([N+](=O)[O-])c2)N1 (configuration not stated) | -3.66 | -4.8 | -13 | -22 | 20.2 | 5.06 (≈ 11.7 µM) | 46.8 (≈ 108 µM) | 3.6 | -4.84 | 1.64 | 22.4 | 7.5 | 3.97 | -4.2 | 34.3 | -8.76 | 8.24 | 2.53 | -7.64 | 6.5 | inhibition of growth at 10 µM (NCI-H23): 4.2%; IC50 [9]: 17 µM; inhibition of growth at 10 µM (MDA-MB-468): 2.9%; inhibition of growth at 10 µM (NCI/ADR-RES): -4.88% |
